# Measurements reported in patent publication US9150592B2, “Heterocyclic nuclear hormone receptor modulators” (AbbVie Inc., priority 2012, dated 2015).
# Assays:
# [1] = target: T1, Glucocorticoid Receptor (GR) (Homo sapiens, UniProt P04150); test: GR Fluorescence Polarization Assay (PolarScreen Glucocorticoid Receptor Competitor Assay, Red); conditions: IC50 class ranges, read-out: GR binding
# T1 construct: purchased Invitrogen P2893
# T1 sequence (P04150 1-777): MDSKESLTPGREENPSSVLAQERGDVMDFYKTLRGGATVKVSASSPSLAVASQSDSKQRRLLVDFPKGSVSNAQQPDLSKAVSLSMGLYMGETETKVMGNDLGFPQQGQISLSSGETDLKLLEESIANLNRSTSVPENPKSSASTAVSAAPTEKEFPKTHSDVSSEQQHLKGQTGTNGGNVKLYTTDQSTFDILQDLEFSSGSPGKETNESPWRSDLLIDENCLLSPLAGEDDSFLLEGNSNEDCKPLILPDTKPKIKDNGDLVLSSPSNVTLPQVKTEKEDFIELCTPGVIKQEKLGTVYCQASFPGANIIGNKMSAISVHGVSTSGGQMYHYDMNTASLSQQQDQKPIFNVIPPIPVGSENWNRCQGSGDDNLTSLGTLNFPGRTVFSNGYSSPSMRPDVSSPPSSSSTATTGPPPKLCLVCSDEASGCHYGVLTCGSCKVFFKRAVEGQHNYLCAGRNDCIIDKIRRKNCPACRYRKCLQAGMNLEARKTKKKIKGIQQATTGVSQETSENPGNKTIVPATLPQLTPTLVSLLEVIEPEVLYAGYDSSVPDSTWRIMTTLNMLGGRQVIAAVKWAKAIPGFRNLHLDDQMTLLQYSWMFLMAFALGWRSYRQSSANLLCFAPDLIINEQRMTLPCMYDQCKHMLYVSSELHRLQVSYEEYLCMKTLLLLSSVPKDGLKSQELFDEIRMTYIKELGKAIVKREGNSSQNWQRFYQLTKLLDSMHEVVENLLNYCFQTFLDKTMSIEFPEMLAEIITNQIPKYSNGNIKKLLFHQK
# Protocol: GR Fluorescence Polarization Assay
# Fluorescence polarization assays were carried out using the PolarScreen™ Glucocorticoid Receptor Competitor Assay, Red from Invitrogen (P2893). The assay buffer was prepared according to the manufacturer's protocol and used to dilute the fluorescent glucocorticoid and GR. Compounds were prepared and serial diluted 1:4 in DMSO. Compound, fluorescent glucocorticoid and GR were added in a final volume of 20 μL and incubated overnight at 4° C. Fluorescent polarization was measured on the PerkinElmer Envision®.
# [2] = system: IL-6 in A549 cells stimulated with IL-1β; test: A549 Cell Assay to Measure Inflammation Markers (inhibition of IL-1β-induced IL-6); type: cell-based; conditions: Homo sapiens, A549, A549 Cell Assay to Measure Inflammation Markers; intrinsic activity, Emax class ranges
# Protocol: A549 Cell Assay to Measure Inflammation Markers
# Further dilution (1:250) of compound was made into assay medium and 50 μL/well diluted drug or DMSO/media control was applied to cells. After a 1 h pre-incubation in a temperature, CO2, and humidity controlled incubator, set to 37° C., 50 μL/well of 4 ng/mL IL-1β diluted in assay media, was applied to cultures. Assay plates, with a final volume of 200 μL/well and final concentrations of 0.1% DMSO and 1 ng/mL IL-1β were returned to incubator for a […] incubation period. Next, plates were spun at 183 g (1000 rpm in Beckman/Coulter Allegra 6KR centrifuge) for 10 min. Cell-free supernatant (150 μL/well) was collected and IL-6 was measured by MSD kit, following protocol of manufacturer, and using MSD SECTOR Imager 6000 instrument. […] Results were represented as IC50 and Emax values.
Compound,IC50 [1],Emax [2]
"Cc1cc(C#CCO)ccc1[C@@H]1SC[C@H](C)Nc2c1c(-c1ccccn1)nn2C (single isomer, unassigned) [M.71, 3-(4-(1,7-dimethyl-3-(pyridin-2-yl)-4,6,7,8-tetrahydro-1H-pyrazolo[3,4-e][1,4]thiazepin-4-yl)-3-methylphenyl)prop-2-yn-1-ol]",< 100 nM,< 50%
Cc1ccc(C)c(C2SCCNc3c2c(-c2ccccn2)nn3C)c1 (stereo not drawn) [D.20],< 100 nM,< 50%
"Cc1nn(C)c2c1C(c1ccc(Cl)cc1Cl)[S+]([O-])C(C)(C)CN2 (stereo not drawn) [L.1, 4-(2,4-dichlorophenyl)-1,3,6,6-tetramethyl-7,8-dihydro-4H-pyrazolo[3,4-e][1,4]thiazepine 5-oxide]",> 10000 nM,< 50%
"Cc1cc(Cl)ccc1[C@@H]1S[C@H](CCO)CNc2c1c(-c1ccccn1)nn2C (single isomer, unassigned) [M.12, 2-(4-(4-chloro-2-methylphenyl)-1-methyl-3-(pyridin-2-yl)-4,6,7,8-tetrahydro-1H-pyrazolo[3,4-e][1,4]thiazepin-6-yl)ethanol]",100 to 1000 nM,< 50%
Cc1ccc(C2SCCNc3c2c(-c2ccccn2)nn3C)c(C)c1 (stereo not drawn) [D.9],< 100 nM,< 50%
Cc1cc(C(F)(F)F)ccc1C1SCCNc2c1c(-c1ccccn1)nn2C (stereo not drawn) [D.41],< 100 nM,< 50%
Cc1cc(Cl)ccc1[C@@H]1SC(C)(C)CNc2c1c(C1CC1)nn2C,100 to 1000 nM,< 50%
Cc1cc(Cl)ccc1C1SCCNc2c1c(-c1ccn[nH]1)nn2C (stereo not drawn),100 to 1000 nM,< 50%
Cc1cc2c(cnn2-c2ccc(F)cc2)cc1C1SCC(=O)Nc2c1c(-c1ccccn1)nn2C (racemic),< 100 nM,> 70%
"Cc1cc(C(=O)Nc2cccnc2C)ccc1[C@@H]1SC[C@@H](C)Nc2c1c(-c1ccncn1)nn2C (single isomer, unassigned) [M.57, 4-(1,7-dimethyl-3-(pyrimidin-4-yl)-4,6,7,8-tetrahydro-1H-pyrazolo[3,4-e][1,4]thiazepin-4-yl)-3-methyl-N-(2-methylpyridin-3-yl)benzamide]",< 100 nM,> 70%
Cn1nc(-c2ccc(Cl)cc2)c2c1NCCSC2c1ccc(Cl)cc1Cl (stereo not drawn) [D.82],100 to 1000 nM,< 50%
"CCn1nc(-c2ccccn2)c2c1N[C@@H](C)CS[C@H]2c1ccc(C(N)=O)cc1C (single isomer, unassigned) [M.48, 4-(1-ethyl-7-methyl-3-(pyridin-2-yl)-4,6,7,8-tetrahydro-1H-pyrazolo[3,4-e][1,4]thiazepin-4-yl)-3-methylbenzamide]",< 100 nM,> 50%
Cc1cc(C#N)ccc1[C@@H]1S[C@@H](C)CNc2c1c(C)nn2C [G.2],100 to 1000 nM,< 50%
Cc1cc(Br)ccc1C1SCCNc2c1c(-c1ccccn1)nn2C (stereo not drawn),< 100 nM,> 50%
"Cc1cc(Cl)ccc1C1SCC(C)Nc2c1c(-c1ccccn1)nn2C (single isomer, unassigned)",1000 to 10000 nM,< 50%
Cn1nc(-c2nccs2)c2c1NCCSC2c1ccc(Cl)cc1Cl (stereo not drawn) [D.16],< 100 nM,< 50%
"Cc1ncccc1NC(=O)c1ccc(C2SC(C)(C)CNc3c2c(C)nn3C)c(Cl)c1 (single isomer, unassigned) [M.8, 3-chloro-N-(2-methylpyridin-3-yl)-4-(1,3,6,6-tetramethyl-4,6,7,8-tetrahydro-1H-pyrazolo[3,4-e][1,4]thiazepin-4-yl)benzamide]",1000 to 10000 nM,< 50%
"Cc1cc(C#CCCO)ccc1[C@@H]1SC[C@@H](C)Nc2c1c(-c1ccccn1)nn2C (single isomer, unassigned) [M.55, 4-(4-(1,7-dimethyl-3-(pyridin-2-yl)-4,6,7,8-tetrahydro-1H-pyrazolo[3,4-e][1,4]thiazepin-4-yl)-3-methylphenyl)but-3-yn-1-ol]",< 100 nM,< 50%

Compound,IC50 [1],Emax [2]
CCc1cc(Cl)ccc1C1SCCNc2c1c(-c1ccccn1)nn2C (stereo not drawn),< 100 nM,> 50%
Cc1cc(Br)ccc1[C@H]1SC[C@@H](C(F)(F)F)Nc2c1c(-c1ccccn1)nn2C (racemic),< 100 nM,< 50%
"CCn1nc(-c2ccccn2)c2c1NCCCC2c1ccc(Br)cc1C (stereo not drawn) [BB.1, 4-(4-bromo-2-methylphenyl)-1-ethyl-3-(pyridin-2-yl)-1,4,5,6,7,8-hexahydropyrazolo[3,4-b]azepine]",< 100 nM,> 70%
"Cc1cc(Cl)ccc1[C@H]1S[C@H](CCO)CNc2c1c(-c1ccccn1)nn2C (single isomer, unassigned) [M.11, 2-(4-(4-chloro-2-methylphenyl)-1-methyl-3-(pyridin-2-yl)-4,6,7,8-tetrahydro-1H-pyrazolo[3,4-e][1,4]thiazepin-6-yl)ethanol]",1000 to 10000 nM,< 50%
"Cc1cc(Cl)ccc1[C@@H]1S[C@@H](CCO)CNc2c1c(C)nn2C (single isomer, unassigned) [M.16, 2-[4-(4-chloro-2-methyl-phenyl)-1,3-dimethyl-4,6,7,8-tetrahydro-1H-pyrazolo[3,4-e][1,4]thiazepin-6-yl]-ethanol]",1000 to 10000 nM,< 50%
CCn1nc(-c2ccccn2)c2c1NCCSC2c1ccc(C(=O)Nc2cc(C)nn2C)cc1C (stereo not drawn) [S.2],< 100 nM,> 70%
Cc1nn(C)c2c1C(c1ccc(Cl)cc1Cl)SC1(CCCC1)CN2 (stereo not drawn) [D.65],< 100 nM,< 50%
Cc1cc(Cl)ccc1C1SCCNc2c1c(-c1cc(Br)ccn1)nn2C (stereo not drawn) [D.19],< 100 nM,< 50%
Cc1cc(Cl)ccc1C1SCCNc2c1c(C1CCCO1)nn2C (stereo not drawn) [D.72],100 to 1000 nM,< 50%
Cc1cc(S(C)(=O)=O)ccc1C1SCCNc2c1c(-c1ccccn1)nn2C (stereo not drawn),100 to 1000 nM,< 50%
Cc1cc(Cl)ccc1C1SCCNc2nn(C)cc21 (stereo not drawn) [D.13],1000 to 10000 nM,< 50%
"Cc1nn(C)c2c1C(c1ccc(Cl)cc1Cl)SC(C)(C)CN2 (stereo not drawn) [D.4, 4-(2,4-dichlorophenyl)-1,3,6,6-tetramethyl-7,8-dihydro-4H-pyrazolo[3,4-e][1,4]thiazepine]",< 100 nM,< 50%
Cc1cc(C(=O)Nc2cccnc2C)ccc1[C@H]1CC[C@@](O)(C(F)(F)F)Cc2c1c(-c1ccccn1)nn2C (racemic),< 100 nM,> 70%
"CCn1nc(-c2ccccn2)c2c1N[C@H](C)CS[C@H]2c1ccc(CCC(C)(C)O)cc1C (single isomer, unassigned) [M.40, 4-(4-(1-ethyl-7-methyl-3-(pyridin-2-yl)-4,6,7,8-tetrahydro-1H-pyrazolo[3,4-e][1,4]thiazepin-4-yl)-3-methylphenyl)-2-methylbutan-2-ol]",< 100 nM,> 70%
"Cn1nc(C2CC2)c2c1NCC(C)(C)SC2c1ccc(Cl)cc1F (single isomer, unassigned) [M.3, 4-(4-chloro-2-fluorophenyl)-3-cyclopropyl-1,6,6-trimethyl-4,6,7,8-tetrahydro-1H-pyrazolo[3,4-e][1,4]thiazepine]",1000 to 10000 nM,< 50%
Cn1nc(-c2ccccn2)c2c1NCCSC2c1c(Cl)cccc1Cl (stereo not drawn) [D.2],1000 to 10000 nM,< 50%
Cn1nc(-c2ccccn2)c2c1NCCSC2Cc1ccccc1 (stereo not drawn) [D.36],> 10000 nM,< 50%
CCn1nc(-c2ccccn2)c2c1NCCSC2c1ccc(C(=O)Nc2cccnc2C)cc1C (stereo not drawn) [H.4],< 100 nM,> 70%
